The values below come from article PMC8602723, “Comparative assessment of antimicrobial, antiradical and cytotoxic activities of cannabidiol and its propyl analogue cannabidivarin” (Scientific Reports, 2021).

A short description of test [1]: ABTS assay (radical scavenging). The following applies: 50% reduction of initial ABTS radical absorbance, 6 min; 95% confidence limits in brackets. As for the experimental part:
An ABTS assay was performed following the procedure described by Lavorgna et al. 2019[66]. The cationic ABTS radical (ABTS^+) was generated by oxidizing ABTS (7 mM) with potassium persulfate (140 mM K2S2O8), and the mixture was incubated for 12–16 h in the dark. The ABTS^+ working solution was diluted to an absorbance of […] OD at 734 nm. […] Distilled water was used for the blank, Trolox was used for the standard control, and methanol was used for the solvent control.
The results are expressed as the median effective concentration (EC50). Furthermore, Trolox equivalent antioxidant capacity (TEAC) values were calculated following the procedure used by Shimamura end colleagues[68]:5 TEAC=EC50Trolox/EC50sample
(§1) All results from five independent experiments are expressed as the IC50 or EC50 as determined by analysis with Prism 5 software (GraphPad Inc., San Diego, CA, USA) and nonlinear regression (log agonist vs. normalized response-variable slope) with a 95% confidence range. Lowest observed adverse effect concentrations (LOAECs) were calculated by one-way ANOVA and Dunnett’s comparison test. Differences compared to the controls were considered significant as follows: *p < 0.05, **p < 0.001 and ***p < 0.0001.

Test [2] is described as follows: DPPH assay (radical scavenging). The following applies: 50% reduction of initial DPPH radical absorbance, 30 min; 95% confidence limits in brackets. As for the experimental part: DPPH assay was performed following the protocol described by Brand-Williams et al.[69]. DPPH^⋅ was dissolved in methanol, generating a purple solution (101.43 µM). […] Furthermore, 940 μL of methanol and 60 μL of distilled water were used for the blank. Trolox was used as the standard control, and methanol was used as the solvent control.
The results were expressed as the median effective concentration of sample able to reduce the initial absorbance of the DPPH radical (EC50). Furthermore, TEAC values were calculated in line with Shimamura end colleagues[68] as previously reported.
as §1
Background: Loss of DPPH colour is used to gauge radical scavenging.

Regarding `Cc1c(C)c2c(c(C)c1O)CCC(C)(C(=O)O)O2` (centres unmarked) [TROLOX, 6-Hydroxy-2,5,7,8-tetramethylchromane 2-carboxylic acid, reference compound], the EC50 (in general, the midpoint of the concentration-response curve) in test [1] came to 111 µM; in test [2], 327 µM.
